Laboratory results taken from US20240148821A1, “PHARMACEUTICAL USE OF CYCLIC PEPTIDE COMPOUND” (CHUGAI SEIYAKU KABUSHIKI KAISHA, priority 2021, published 2024).
Bridge positions count the residues as written; N and C are the ends. Square brackets hold non-standard residues; d marks the D form. Peptide text beside a SMILES is read from it. * marks the point of attachment. hPhe(3,5-F2-4-CF3) = N[C@@H](CCc1cc(F)c(C(F)(F)F)c(F)c1)C(=O)O; hPhe(3-Cl-4-CF3) = N[C@@H](CCc1ccc(C(F)(F)F)c(Cl)c1)C(=O)O; hPhe(3-F,4-CF3) = N[C@@H](CCc1ccc(C(F)(F)F)c(F)c1)C(=O)O; NMePhe(4-CF3) = CN[C@@H](Cc1ccc(C(F)(F)F)cc1)C(=O)O; 3Oxa8azabicyclo(3.2.1)octane = C1CC2COCC1N2*; NMePhe(4-Me) = CN[C@@H](Cc1ccc(C)cc1)C(=O)O; NMeGly(cPent) = CN[C@H](C(=O)O)C1CCCC1; NMeGly(cBu) = CN[C@H](C(=O)O)C1CCC1; NMeCha = CN[C@@H](CC1CCCCC1)C(=O)O; Hyp = O=C(O)[C@@H]1C[C@@H](O)CN1; NEtLeu = CCN[C@@H](CC(C)C)C(=O)O; NMeChg = CN[C@H](C(=O)O)C1CCCCC1; NMeI = CC[C@H](C)[C@H](NC)C(=O)O; NMeD = CN[C@@H](CC(=O)O)C(=O)O; NMeL = CN[C@@H](CC(C)C)C(=O)O; d(β3hA) = C[C@@H](N)CC(=O)O; Azetidin(1-yl) = C1CN(*)C1; Morpholide = C1CN(*)CCO1; NMeA = CN[C@@H](C)C(=O)O; Piperidide = C1CCN(*)CC1; Pyrrolidide = C1CCN(*)C1; dNMeA = CN[C@H](C)C(=O)O; Ac5c = NC1(C(=O)O)CCCC1; Aze = O=C(O)[C@@H]1CCN1; Sar = CNCC(=O)O

How the values were obtained:
[1] = target: protein-protein interaction between Kras and SOS1 (biotin-tagged human Kras loaded with GDP, His-tagged human SOS1) (Homo sapiens (Human), UniProt P01116, G12D); experiment: Protein-protein interaction inhibition between Kras and SOS1 (KrasG12D-SOS PPI) using AlphaScreen; format: biochemical; conditions: AlphaScreen; biotin-tagged human Kras loaded with GDP, His-tagged human SOS1; read-out: KRAS G12D-SOS PPI IC50;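 also: kras produced in E. coli, Ni-coupled donor beads and streptavidin acceptor beads, excitation 680 nm with emission detected at 520–620 nm via singlet oxygen transfer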
[2] = system: Human pancreatic cancer cell line AsPC-1 (G12D mutation Kras); experiment: AsPC-1 cell growth inhibition (AsPC-1 CGI); format: cell-based; conditions: read-out: AsPC-1 cell growth inhibition, 50% growth inhibitory concentration (IC50 value); 96 hours, CellTiter-Glo, values classified in ranges

Compound | IC50 [1] | IC50 [2]
CC[C@H](C)[C@@H]1NC(=O)[C@H](CC(C)C)N(CC)C(=O)C[C@@H](C(=O)N2CCOCC2)N(C)C(=O)[C@H](C2CCCC2)N(C)C(=O)C2(CCCC2)NC(=O)[C@@H]2CCCN2C(=O)[C@H](CCc2ccc(C(F)(F)F)c(Cl)c2)NC(=O)CN(C)C(=O)[C@H](CC2CCCCC2)N(C)C(=O)[C@@H]2CCN2C(=O)[C@H](C)N(C)C1=O [Compound 1220] ([NEtLeu]I[NMeA][Aze][NMeCha][Sar][hPhe(3-Cl-4-CF3)]P[Ac5c][NMeGly(cPent)][NMeD]-Morpholide; lactam N-11) | 0.64 nM | ≤ 20 nM
CC[C@H](C)[C@@H]1NC(=O)[C@H](CC(C)C)N(C)C(=O)C[C@@H](C(=O)N2CCOCC2)N(C)C(=O)[C@H](C2CCCC2)N(C)C(=O)C2(CCCC2)NC(=O)[C@@H]2CCCN2C(=O)[C@H](CCc2ccc(C(F)(F)F)c(F)c2)NC(=O)CN(C)C(=O)[C@H](CC2CCCCC2)N(C)C(=O)[C@@H]2CCN2C(=O)[C@H](C)N(C)C1=O [Compound 390] ([NMeL]I[NMeA][Aze][NMeCha][Sar][hPhe(3-F,4-CF3)]P[Ac5c][NMeGly(cPent)][NMeD]-Morpholide; lactam N-11) | 0.77 nM | ≤ 20 nM
CC[C@H](C)[C@@H]1NC(=O)[C@H](CC(C)C)N(C)C(=O)C[C@@H](C(=O)N2CCC2)N(C)C(=O)[C@H]([C@@H](C)CC)N(C)C(=O)C2(CCCC2)NC(=O)[C@@H]2CCCN2C(=O)[C@H](CCc2ccc(C(F)(F)F)c(Cl)c2)NC(=O)CN(C)C(=O)[C@H](CC2CCCCC2)N(C)C(=O)[C@@H]2CCN2C(=O)[C@H](C)N(C)C1=O [Compound 150] ([NMeL]I[NMeA][Aze][NMeCha][Sar][hPhe(3-Cl-4-CF3)]P[Ac5c][NMeI][NMeD]-{Azetidin(1-yl)}; lactam N-11) | 1.3 nM | ≤ 20 nM
CC[C@H](C)[C@@H]1NC(=O)[C@H](CC(C)C)N(C)C(=O)C[C@@H](C(=O)N2CCOCC2)N(C)C(=O)[C@H]([C@@H](C)CC)N(C)C(=O)C2(CCCC2)NC(=O)[C@@H]2CCCN2C(=O)[C@H](CCc2ccc(C(F)(F)F)c(Cl)c2)NC(=O)CN(C)C(=O)[C@H](Cc2ccc(C(F)(F)F)cc2)N(C)C(=O)[C@@H]2CCN2C(=O)[C@H](C)N(C)C1=O [Compound 276] ([NMeL]I[NMeA][Aze][NMePhe(4-CF3)][Sar][hPhe(3-Cl-4-CF3)]P[Ac5c][NMeI][NMeD]-Morpholide; lactam N-11) | 0.76 nM | ≤ 20 nM
CC[C@H](C)[C@@H]1NC(=O)[C@H](C)N(C)C(=O)C[C@@H](C)NC(=O)[C@H](C2CCCC2)N(C)C(=O)C2(CCCC2)NC(=O)[C@@H]2CCCN2C(=O)[C@H](CCc2ccc(C(F)(F)F)c(Cl)c2)NC(=O)[C@@H](C)N(C)C(=O)[C@H](Cc2ccc(C)cc2)N(C)C(=O)[C@@H]2CCN2C(=O)CN(C)C1=O [Compound 1461] (cyclo([Ac5c][NMeGly(cPent)][d(β3hA)][NMeA]I[Sar][Aze][NMePhe(4-Me)][dNMeA][hPhe(3-Cl-4-CF3)]P)) | 37 nM | > 500 nM
CC[C@H](C)[C@@H]1NC(=O)[C@H](C2CCC2)N(C)C(=O)C[C@@H](C(=O)N2CCCCC2)N(C)C(=O)[C@H](C2CCCC2)N(C)C(=O)C2(CCCC2)NC(=O)[C@@H]2CCCN2C(=O)[C@H](CCc2ccc(C(F)(F)F)c(Cl)c2)NC(=O)CN(C)C(=O)[C@H](CC2CCCCC2)N(C)C(=O)[C@@H]2CCN2C(=O)[C@H](C)N(C)C1=O [Compound 270] ([NMeGly(cBu)]I[NMeA][Aze][NMeCha][Sar][hPhe(3-Cl-4-CF3)]P[Ac5c][NMeGly(cPent)][NMeD]-Piperidide; lactam N-11) | 0.67 nM | ≤ 20 nM
CC[C@H](C)[C@@H]1NC(=O)[C@H](CC(C)C)N(C)C(=O)C[C@@H](C(=O)N2CCCCC2)N(C)C(=O)[C@H]([C@@H](C)CC)N(C)C(=O)C2(CCCC2)NC(=O)[C@@H]2CCCN2C(=O)[C@H](CCc2ccc(C(F)(F)F)c(F)c2)NC(=O)CN(C)C(=O)[C@H](Cc2ccc(C)cc2)N(C)C(=O)[C@@H]2CCN2C(=O)[C@H](C)N(C)C1=O [Compound 678] ([NMeL]I[NMeA][Aze][NMePhe(4-Me)][Sar][hPhe(3-F,4-CF3)]P[Ac5c][NMeI][NMeD]-Piperidide; lactam N-11) | 1.7 nM | ≤ 20 nM
CCO[C@@H]1C[C@H]2C(=O)NC3(CCCC3)C(=O)N(C)[C@@H](C3CCCCC3)C(=O)N(C)[C@H](C(=O)N3CCCC3)CC(=O)N(C)[C@@H](C3CCC3)C(=O)N[C@@H]([C@@H](C)CC)C(=O)N(C)CC(=O)N(C)CC(=O)N(C)[C@@H](CC3CCCCC3)C(=O)N(C)CC(=O)N[C@@H](CCc3cc(F)c(C(F)(F)F)c(F)c3)C(=O)N2C1 [Compound 1144] ([NMeGly(cBu)]I[Sar][Sar][NMeCha][Sar][hPhe(3,5-F2-4-CF3)][Hyp](Et)[Ac5c][NMeChg][NMeD]-Pyrrolidide; lactam N-11) | 0.49 nM | ≤ 20 nM
CC[C@H](C)[C@@H]1NC(=O)[C@H](CC(C)C)N(C)C(=O)C[C@@H](C(=O)N2C3CCC2COC3)N(C)C(=O)[C@H](C2CCCC2)N(C)C(=O)C2(CCCC2)NC(=O)[C@@H]2CCCN2C(=O)[C@H](CCc2ccc(C(F)(F)F)c(Cl)c2)NC(=O)CN(C)C(=O)[C@H](Cc2ccc(C(F)(F)F)cc2)N(C)C(=O)[C@@H]2CCN2C(=O)[C@H](C)N(C)C1=O [Compound 422] ([NMeL]I[NMeA][Aze][NMePhe(4-CF3)][Sar][hPhe(3-Cl-4-CF3)]P[Ac5c][NMeGly(cPent)][NMeD]-{3Oxa8azabicyclo(3.2.1)octane}; lactam N-11) | 0.87 nM | ≤ 20 nM
